Legend:
[1] = system: human cervical tumor cell line HeLa (ATCC CCL-2); assay: SAC-Formation - Nocodazole-Induced Assay; type: cell-based; conditions: Homo sapiens, HeLa, 24 h, HeLa cells, nocodazole 0.1 μg/ml together with test compound, decrease of mitotic cells (phospho-histone H3 Ser10)
Procedure, shortened: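 Loss of phospho-histone H3 Ser10-positive cells, counted against Hoechst-stained nuclei by high-content imaging, marked mitotic breakthrough. Compounds (0.005–20 μM, 0.5% DMSO) were co-dosed with 0.1 μg/ml nocodazole onto HeLa cells for 24 h at 37 °C. Curves were fitted with a four-parameter Hill equation.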

[2] = system: human cervical tumor cell line HeLa (ATCC CCL-2); assay: SAC-Formation - Paclitaxel-Induced Assay; type: cell-based; conditions: Homo sapiens, HeLa, 24 h, HeLa cells, paclitaxel 0.05 μM, test range 0.005 μM-20 μM, read-out: IC50 [mol/l] SAC-Formation - Paclitaxel-Induced Assay
Procedure, shortened: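 Read-out is high-content imaging of anti-phospho-H3 Ser10 (mitosis) and Hoechst 33342 (DNA, cell number), with decreased mitotic fraction marking checkpoint breakthrough. Compounds (0.005–20 μM) and 0.05 μM paclitaxel co-added to overnight-plated HeLa for 24 h at 37° C; four-parameter Hill fit.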

SMILES	IC50 [1]	IC50 [2]
Cc1nsc(Nc2cnc(C(F)(F)F)cn2)c1C(=O)Nc1ccc(OCC2CCN(CC(F)(F)F)C2)nc1 (stereo not shown) [Example 123, 3-Methyl-N-(6-{[1-(2,2,2-trifluoroethyl)pyrrolidin-3-yl]methoxy}pyridin-3-yl)-5-{[5-(trifluoromethyl)pyrazin-2-yl]amino}-1,2-thiazole-4-carboxamide]	12 nM	24 nM
Cc1nsc(Nc2cnc(C(F)(F)F)cn2)c1C(=O)Nc1ccc(C(=O)N2CCN(CC(F)F)CC2)cc1 [Example 154, N-(4-{[4-(2,2-difluoroethyl)piperazin-1-yl]carbonyl}phenyl)-3-methyl-5-{[5-(trifluoromethyl)pyrazin-2-yl]amino}-1,2-thiazole-4-carboxamide]	710 nM	1200 nM
Cc1nsc(Nc2cnc3ccccc3n2)c1C(=O)Nc1ccc(N2CCOCC2)nc1 [Example 169, 3-methyl-N-[6-(morpholin-4-yl)pyridin-3-yl]-5-(quinoxalin-2-ylamino)-1,2-thiazole-4-carboxamide]	2500 nM	14000 nM
Cc1noc(-c2cccc(NC(=O)c3c(C)nsc3Nc3cnc4ccccc4n3)c2)n1 [Example 106, 3-Methyl-N-[3-(3-methyl-1,2,4-oxadiazol-5-yl)phenyl]-5-(quinoxalin-2-ylamino)-1,2-thiazole-4-carboxamide]	140 nM	130 nM
Cc1nsc(Nc2cnc3ccccc3n2)c1C(=O)Nc1cccc(-c2nc(C(C)(C)C)no2)c1 [Example 108, N-[3-(3-tert-Butyl-1,2,4-oxadiazol-5-yl)phenyl]-3-methyl-5-(quinoxalin-2-ylamino)-1,2-thiazole-4-carboxamide]	19 nM	53 nM
Cc1nsc(Nc2cnc(C(F)(F)F)cn2)c1C(=O)Nc1ccc(OC[C@H]2CCN(CC(F)F)C2)nc1 [Example 132, N-(6-{[(3S)-1-(2,2-difluoroethyl)pyrrolidin-3-yl]methoxy}pyridin-3-yl)-3-methyl-5-{[5-(trifluoromethyl)pyrazin-2-yl]amino}-1,2-thiazole-4-carboxamide]	27 nM	–
Cc1nsc(Nc2cc(C#N)ccn2)c1C(=O)Nc1cccc(C(=O)N2CCCC2)c1 [Example 114, 5-[(4-Cyanopyridin-2-yl)amino]-3-methyl-N-[3-(pyrrolidin-1-ylcarbonyl)phenyl]-1,2-thiazole-4-carboxamide]	210 nM	1300 nM
Cc1nsc(Nc2cncc(C(F)(F)F)n2)c1C(=O)Nc1ccc(F)c(OC2CCN(C(=O)OC(C)(C)C)CC2)c1 [Example 168, tert-butyl 4-(2-fluoro-5-{[(3-methyl-5-{[6-(trifluoromethyl)pyrazin-2-yl]amino}-1,2-thiazol-4-yl)carbonyl]amino}phenoxy)piperidine-1-carboxylate]	17 nM	75 nM
Cc1nsc(Nc2cnc(C(F)(F)F)cn2)c1C(=O)Nc1ccc(OC2CCN(CC(F)F)CC2)c(F)c1 [Example 164, N-(4-{[1-(2,2-difluoroethyl)piperidin-4-yl]oxy}-3-fluorophenyl)-3-methyl-5-{[5-(trifluoromethyl)pyrazin-2-yl]amino}-1,2-thiazole-4-carboxamide]	84 nM	140 nM
Cc1nsc(Nc2cncc(C(F)(F)F)n2)c1C(=O)Nc1ccc(C(=O)NCCN2CCCC(F)C2)cc1 (stereo not shown) [Example 155, N-(4-{[2-(3-fluoropiperidin-1-yl)ethyl]carbamoyl}phenyl)-3-methyl-5-{[6-(trifluoromethyl)pyrazin-2-yl]amino}-1,2-thiazole-4-carboxamide]	1700 nM	20000 nM
Cc1nsc(Nc2cnc(C(F)(F)F)cn2)c1C(=O)Nc1ccc(OC[C@H]2CCN(CCC(F)(F)F)C2)nc1 [Example 134, 3-Methyl-5-{[5-(trifluoromethyl)pyrazin-2-yl]amino}-N-(6-{[(3S)-1-(3,3,3-trifluoropropyl)pyrrolidin-3-yl]methoxy}pyridin-3-yl)-1,2-thiazole-4-carboxamide]	36 nM	–

Second part, the compound after the results:

IC50 [1]	IC50 [2]	SMILES
13000 nM	20000 nM	Cc1nsc(Nc2cnc3ccccc3n2)c1C(=O)Nc1cccc(C(=O)N[C@@H](CCC(N)=O)C(=O)O)c1 [Example 103, N^2-[3-({[3-Methyl-5-(quinoxalin-2-ylamino)-1,2-thiazol-4-yl]carbonyl}amino)-benzoyl]glutamine]
230 nM	800 nM	CC(=O)N(C)CCOc1ccc(NC(=O)c2c(C)nsc2Nc2nc3c(C(F)(F)F)cccc3s2)cn1 [Example 112, N-(6-{2-[Acetyl(methyl)amino]-ethoxy}pyridin-3-yl)-3-methyl-5-{[4-(trifluoromethyl)-1,3-benzothiazol-2-yl]amino}-1,2-thiazole-4-carboxamide]
220 nM	360 nM	Cc1nsc(Nc2cnc(C(F)(F)F)cn2)c1C(=O)Nc1ccc(OC2CCN(CC(F)(F)F)CC2)nc1 [Example 9, -Methyl-N-(6-{[1-(2,2,2-trifluoroethyl)piperidin-4-yl]oxy}pyridin-3-yl)-5-{[5-(trifluoromethyl)pyrazin-2-yl]amino}-1,2-thiazole-4-carboxamide]
14000 nM	19000 nM	Cc1nsc(Nc2cnc(C(F)(F)F)cn2)c1C(=O)Nc1ccc(OC2CCNCC2)nc1 [Example 6, 3-Methyl-N-[6-(piperidin-4-yloxy)pyridin-3-yl]-5-{[5-(trifluoromethyl)pyrazin-2-yl]amino}-1,2-thiazole-4-carboxamide]
63 nM	110 nM	Cc1nsc(Nc2cnc(C(F)(F)F)cn2)c1C(=O)Nc1ccc(O[C@H]2CCN(CCC(F)(F)F)C[C@H]2F)nc1 [Example 146, N-(6-{[(3R,4S)-3-fluoro-1-(3,3,3-trifluoropropyl)piperidin-4-yl]oxy}pyridin-3-yl)-3-methyl-5-{[5-(trifluoromethyl)pyrazin-2-yl]amino}-1,2-thiazole-4-carboxamide]
160 nM	120 nM	Cc1nsc(Nc2cnc(C(F)(F)F)cn2)c1C(=O)Nc1ccc(OC2CCN(CCF)CC2)c(F)c1 [Example 162, N-(3-fluoro-4-{[1-(2-fluoroethyl)piperidin-4-yl]oxy}phenyl)-3-methyl-5-{[5-(trifluoromethyl)pyrazin-2-yl]amino}-1,2-thiazole-4-carboxamide]
8400 nM	8800 nM	CC(=O)Nc1cc(NC(=O)c2c(C)nsc2Nc2ccc(C#N)cn2)ccc1F [Example 152, N-(3-acetamido-4-fluorophenyl)-5-[(5-cyanopyridin-2-yl)amino]-3-methyl-1,2-thiazole-4-carboxamide]
16 nM	89 nM	Cc1nsc(Nc2cnc(C(F)(F)F)cn2)c1C(=O)Nc1ccc(O[C@@H]2CCN(CCC(F)(F)F)C[C@@H]2F)nc1 [Example 139, N-(6-{[(3S,4R)-3-fluoro-1-(3,3,3-trifluoropropyl)piperidin-4-yl]oxy}pyridin-3-yl)-3-methyl-5-{[5-(trifluoromethyl)pyrazin-2-yl]amino}-1,2-thiazole-4-carboxamide]
27 nM	–	Cc1nsc(Nc2cnc(C(F)(F)F)cn2)c1C(=O)Nc1ccc(OC[C@H]2CCN(CC(F)(F)F)C2)nc1 (racemic) [Example 133, 3-Methyl-N-(6-{[(SR)-1-(2,2,2-trifluoroethyl)pyrrolidin-3-yl]methoxy}pyridin-3-yl)-5-{[5-(trifluoromethyl)pyrazin-2-yl]amino}-1,2-thiazole-4-carboxamide]

— patent US20170334899A1, “AMINO-SUBSTITUTED ISOTHIAZOLES” (Bayer Pharma Aktiengesellschaft, priority 2014, published 2017)
